In patent US8293768B2, “Organic compounds” (Novartis AG, priority 2006, dated 2012):

Row | melting point | SMILES
1 | 187 to 188 °C | Cc1nc(N2CCN(Cc3ccc(OC(F)(F)F)cc3)C2=O)sc1C(=O)Nc1ccccc1 [Example 9.30, 4-methyl-2-(2-oxo-3-(4-(trifluoromethoxy)benzyl)imidazolidin-1-yl)-N-phenylthiazole-5-carboxamide]
2 | 173 to 175 °C | Cc1nc(N2CCN(Cc3ccc(F)cc3)C2=O)sc1C(=O)NCc1cnn(C)c1 [Example 32.13, 2-(3-(4-fluorobenzyl)-2-oxoimidazolidin-1-yl)-4-methyl-N-((1-methyl-1H-pyrazol-4-yl)methyl)thiazole-5-carboxamide]
3 | 185 to 187 °C | Cc1nc(N2CCN(Cc3ccc(F)cc3)C2=O)sc1C(=O)NCc1cnccn1 [Example 32.17, 2-(3-(4-fluorobenzyl)-2-oxoimidazolidin-1-yl)-4-methyl-N-(pyrazin-2-ylmethyl)thiazole-5-carboxamide]
4 | 278 to 279 °C | Cc1nc(-n2cn[nH]c2=O)sc1C(=O)NCc1cccnc1 [Example 21.7, 4-methyl-2-(5-oxo-1H-1,2,4-triazol-4(5H)-yl)-N-(pyridin-3-ylmethyl)thiazole-5-carboxamide]
5 | 75 °C (dec.) | Cc1cc(N2CCN(CC(O)c3ccccc3)C2=O)sc1C(=O)NCc1cccnc1 (stereo not drawn) [Example 57, 5-(3-(2-hydroxy-2-phenylethyl)-2-oxoimidazolidin-1-yl)-3-methyl-N-(pyridin-3-ylmethyl)thiophene-2-carboxamide]
6 | 201 to 203 °C | Cc1cc(-c2sc(N3CCN(Cc4ccc(C(F)(F)F)cc4)C3=O)nc2C)on1 [Example 38.3, 1-(4-methyl-5-(3-methylisoxazol-5-yl)thiazol-2-yl)-3-(4-(trifluoromethyl)benzyl)imidazolidin-2-one]
7 | 117 to 119 °C | CCOC(=O)c1sc(N2CCN(Cc3ccc(Cl)cc3)C2=O)nc1C [Example 10.3, ethyl 2-(3-(4-chlorobenzyl)-2-oxoimidazolidin-1-yl)-4-methylthiazole-5-carboxylate]
8 | 178 to 179 °C | Cc1nc(N2CCN(Cc3ccccc3)C2=O)sc1C(=O)NCc1cccc(Cl)c1 [Example 9.6, 2-(3-benzyl-2-oxoimidazolidin-1-yl)-N-(3-chlorobenzyl)-4-methylthiazole-5-carboxamide]
9 | 142 to 145 °C | Cc1nc(N2CCCN(CC3CC3)C2=O)sc1C(=O)NCc1cccnc1 [Example 32.26, 2-(3-(cyclopropylmethyl)-2-oxotetrahydropyrimidin-1(2H)-yl)-4-methyl-N-(pyridin-3-ylmethyl)thiazole-5-carboxamide]
10 | 206 to 207 °C | Cc1csc(N2CCN(Cc3ccc(C(=O)Nc4ccc(F)cc4)cc3)C2=O)n1 [Example 8.7, N-(4-fluorophenyl)-4-((3-(4-methylthiazol-2-yl)-2-oxoimidazolidin-1-yl)methyl)benzamide]
11 | 155 to 156 °C | Cc1nc(N2CCN(Cc3cccc(F)c3)C2=O)sc1C(=O)NCc1ccccc1 [Example 23.3, N-benzyl-2-(3-(3-fluorobenzyl)-2-oxoimidazolidin-1-yl)-4-methylthiazole-5-carboxamide]
12 | 178 to 179 °C | Cc1nc(-n2cnn(Cc3ccc(F)cc3)c2=O)sc1C(=O)NCc1cccnc1 [Example 21.3, 2-(1-(4-fluorobenzyl)-5-oxo-1H-1,2,4-triazol-4(5H)-yl)-4-methyl-N-(pyridin-3-ylmethyl)thiazole-5-carboxamide]
13 | 198 to 201 °C | Cc1nc(N2CCN(CCc3c[nH]c4ccccc34)C2=O)sc1C(=O)NCc1cccnc1 [Example 32.20, 2-(3-(2-(1H-indol-3-yl)ethyl)-2-oxoimidazolidin-1-yl)-4-methyl-N-(pyridin-3-ylmethyl)thiazole-5-carboxamide]
14 | 151 to 153 °C | Cc1nc(N2CCN(Cc3nccc4ccccc34)C2=O)sc1C(=O)NCc1cccnc1 [Example 32.1, 2-(3-(isoquinolin-1-ylmethyl)-2-oxoimidazolidin-1-yl)-4-methyl-N-(pyridin-3-ylmethyl)thiazole-5-carboxamide]
15 | 157 to 158 °C | COC(=O)c1ccc(CN2CCN(c3nc(C)cs3)C2=O)cc1 [Example 5.13, methyl 4-((3-(4-methylthiazol-2-yl)-2-oxoimidazolidin-1-yl)methyl)benzoate]
16 | 137 to 138 °C | Cc1nc(N2CCN(CCC3CC3)C2=O)sc1C(=O)NCc1ccccc1 [Example 9.17, N-benzyl-2-(3-(2-cyclopropylethyl)-2-oxoimidazolidin-1-yl)-4-methylthiazole-5-carboxamide]
17 | 152 to 153 °C | Cc1nc(-n2cnn(Cc3ccc(F)cc3)c2=O)sc1C(=O)NCc1ncco1 [Example 21.8, 2-(1-(4-fluorobenzyl)-5-oxo-1H-1,2,4-triazol-4(5H)-yl)-4-methyl-N-(oxazol-2-ylmethyl)thiazole-5-carboxamide]
18 | 158 to 159 °C | Cc1nc(-n2ccn(Cc3ccc(F)cc3)c2=O)sc1C(=O)NCc1cccnc1 [Example 17.2, 2-(3-(4-fluorobenzyl)-2-oxo-2,3-dihydro-1H-imidazol-1-yl)-4-methyl-N-(pyridin-3-ylmethyl)thiazole-5-carboxamide]

Row | melting point | SMILES
19 | 225 to 227 °C | CNC(=O)c1sc(N2CCN(Cc3ccc(F)cc3)C2=O)nc1C [Example 32.19, 2-(3-(4-fluorobenzyl)-2-oxoimidazolidin-1-yl)-N,4-dimethylthiazole-5-carboxamide]
20 | 233 to 235 °C | Cc1nc(N2CCN(Cc3ccncc3)C2=O)sc1C(=O)NCc1cccnc1 [Example 33, 4-methyl-2-(2-oxo-3-(pyridin-4-ylmethyl)imidazolidin-1-yl)-N-(pyridin-3-ylmethyl)thiazole-5-carboxamide]
21 | 78 to 80 °C | Cc1cc(N2CCN(CCOc3ccccc3)C2=O)sc1C(=O)NCc1cccnc1 [Example 55, 3-methyl-5-(2-oxo-3-(2-phenoxyethyl)imidazolidin-1-yl)-N-(pyridin-3-ylmethyl)thiophene-2-carboxamide]
22 | 235 to 236 °C | Cc1nc(-n2cnn(CCOCc3ccc(F)cc3)c2=O)sc1C(=O)NCc1cccnc1 [Example 49, 2-(1-(2-(4-fluorobenzyloxy)ethyl)-5-oxo-1H-1,2,4-triazol-4(5H)-yl)-4-methyl-N-(pyridin-3-ylmethyl)thiazole-5-carboxamide]
23 | 161 to 163 °C | Cc1cnc(CNC(=O)c2sc(N3CCN(CC4CC4)C3=O)nc2C)cn1 [Example 9.34, 2-(3-(cyclopropylmethyl)-2-oxoimidazolidin-1-yl)-4-methyl-N-((5-methylpyrazin-2-yl)methyl)thiazole-5-carboxamide]
24 | 122 to 124 °C | COC(=O)c1cccc(CN2CCN(c3nc(C)c(C(C)=O)s3)C2=O)c1 [Example 5.17, methyl 3-((3-(5-acetyl-4-methylthiazol-2-yl)-2-oxoimidazolidin-1-yl)methyl)benzoate]
25 | 185 to 187 °C | CCOC(=O)c1sc(N2CCNC2=O)nc1C(F)(F)F [Example 3.2, ethyl 2-(2-oxoimidazolidin-1-yl)-4-(trifluoromethyl)thiazole-5-carboxylate]
26 | 102 to 103 °C | CCCCCN1CCN(c2nc(C)c(C(=O)NCc3cccnc3)s2)C1=O [Example 9.42, 4-methyl-2-(2-oxo-3-pentylimidazolidin-1-yl)-N-(pyridin-3-ylmethyl)thiazole-5-carboxamide]
27 | 168 to 170 °C | Cc1cc(-n2cnn(Cc3ccc(F)cc3)c2=O)sc1C(=O)NCc1cnn(C)c1 [Example 31.7, 5-(1-(4-fluorobenzyl)-5-oxo-1H-1,2,4-triazol-4(5H)-yl)-3-methyl-N-((1-methyl-1H-pyrazol-4-yl)methyl)thiophene-2-carboxamide]
28 | 163 to 164 °C | Cc1nc(-n2cnn(CCNc3ccc(F)cc3)c2=O)sc1C(=O)NCc1cccnc1 [Example 47.1, 2-(1-(2-(4-fluorophenylamino)ethyl)-5-oxo-1H-1,2,4-triazol-4(5H)-yl)-4-methyl-N-(pyridin-3-ylmethyl)thiazole-5-carboxamide]
29 | 153 to 156 °C | Cc1nc(N2CCN(Cc3ccccc3C(=O)O)C2=O)sc1C(=O)NCc1ccccc1 [Example 25.4, 2-((3-(5-(benzylcarbamoyl)-4-methylthiazol-2-yl)-2-oxoimidazolidin-1-yl)methyl)benzoic acid]
30 | 149 to 151 °C | Cc1nc(N2CCN(Cc3ccc(OC(F)(F)F)cc3)C2=O)sc1C(=O)NC[C@H](O)c1ccccc1 [Example 9.29, (R)—N-(2-hydroxy-2-phenylethyl)-4-methyl-2-(2-oxo-3-(4-(trifluoromethoxy)benzyl)imidazolidin-1-yl)thiazole-5-carboxamide]
31 | 120 °C (dec.) | Cc1cc(N2CCN(Cc3ccc(C(=O)O)cc3)C2=O)sc1C(=O)NCc1cccnc1 [Example 56, 4-((3-(4-methyl-5-(pyridin-3-ylmethylcarbamoyl)thiophen-2-yl)-2-oxoimidazolidin-1-yl)methyl)benzoic acid]
32 | 162 to 164 °C | Cc1nc(N2CCN(Cc3ccc(F)cc3)C2=O)sc1C(=O)N(C)C [Example 32.22, 2-(3-(4-fluorobenzyl)-2-oxoimidazolidin-1-yl)-N,N,4-trimethylthiazole-5-carboxamide]
33 | 201 to 203 °C | Cc1nc(N2CCN(Cc3ccc(F)cc3)C2=O)sc1C(N)=O [Example 32.18, 2-(3-(4-fluorobenzyl)-2-oxoimidazolidin-1-yl)-4-methylthiazole-5-carboxamide]
34 | 160 to 162 °C | Cc1nc(N2CCN(Cc3ccc(C(F)(F)F)cc3)C2=O)sc1-c1cnco1 [Example 43, 1-(4-methyl-5-(oxazol-5-yl)thiazol-2-yl)-3-(4-(trifluoromethyl)benzyl)-imidazolidin-2-one]
35 | 153 to 154 °C | Cc1nc(N2CCN(Cc3ccccc3)C2=O)sc1C(=O)NCc1cccnc1 [Example 9.7, 2-(3-benzyl-2-oxoimidazolidin-1-yl)-4-methyl-N-(pyridin-3-ylmethyl)thiazole-5-carboxamide]
36 | 178 to 179 °C | Cc1nc(-n2cnn(Cc3ccc(F)cc3)c2=O)sc1C(=O)NCc1cc[nH]n1 [Example 21.9, N-((1H-pyrazol-3-yl)methyl)-2-(1-(4-fluorobenzyl)-5-oxo-1H-1,2,4-triazol-4(5H)-yl)-4-methylthiazole-5-carboxamide]
